Reference: patent publication US7759392B2, “Pharmaceutical compounds” (Nicox S.A., priority 1999, dated 2010)
“Also recorded” adds a separate entry of the source.

Legend:
[1] = system: gastrointestinal mucosa; conditions: rats; for Gastro-enteropathy (% incidence) without NEM: maximum tolerated dose
Experimental: The animals (rats) are distributed in the following groups (no. 10 animals for group):
• 1° group: treatment: only carrier (aqueous suspension 1% w/v of carboxymethylcellulose, dose: 5 ml/Kg when the drug is administered by os, or a physiologic solution when parenterally administered, i.e. by subcutaneous, intraperitoneal, intravenous or intermuscular route), • 2° group: treatment: carrier as above defined+NEM, B) Groups Treated with the Drug: • group I: treatment: carrier+drug, • group II: treatment: carrier+drug+NEM.
The administration routes are those known for the drug, and can be the oral or subcutaneous, intraperitoneal, intravenous or intramuscular route.
The animals are sacrificed after 24 hours and then one proceeds to the evaluation of the damage to the gastrointestinal mucosa.
Test 1—experimental model in vivo with N-ethylmaleimide (NEM): study of the gastric tolerability of some drugs screened as precursors of the compounds of the invention.
The animals (rats, weight about 200 g) are distributed in the following groups (No. 10 animals for group):
• 1° group: treatment: only carrier (aqueous suspension 1% w/v of carboxymethylcellulose, dose: 5 ml/Kg when the drug is administered by os, physiologic solution when by parenteral route), • 2° group: treatment: carrier+NEM, B) Groups Administered with Each Drug: • group I: treatment: carrier+drug, • group II: treatment: carrier+drug+NEM.
The drug is administered one hour later, in suspension in the carrier. Animals are sacrificed after 24 hours and evaluation of the damage to the gastrointestinal mucosa is made by counting the number of rats, inside each group, with lesions to the stomach at a visual inspection. The total number of said rats is then divided by the total number of rats of the group and multiplied by 100.

[2] = system: gastrointestinal mucosa, liver (GPT), vascular endothelium (blood pressure); conditions: rat, in vivo; for Gastroenteropathy % without L-NAME: 4 weeks
Experimental: The endothelial dysfunction is evaluated by determining the damage to the gastrointestinal mucosa, the hepatic damage and blood hypertension induced by administration of L-NAME.
The animals (rats) are divided in groups as herein below shown. The group receiving L-NAME is treated for 4 weeks with said compound dissolved at a concentration of 400 mg/liter in drinking water. The following groups are constituted (No. 10 animals for group):
(§1) • 1° group: only carrier (aqueous suspension 1% w/v of carboxymethylcellulose, dose: 5 ml/Kg when the drug is administered by os, physiologic solution when administered parenterally), • 2° group: carrier+L-NAME, B) Groups Administered with the Drug: • 3° group: carrier+drug, • 4° group: carrier+drug+L-NAME.
The administration routes are those known for the drug, and can be the oral or subcutaneous, intraperitoneal, intravenous or intramuscular route. […] The drug is administered once a day for 4 weeks.
At the end of the four weeks treatment access to water is prevented and after 24 hours the animals are sacrificed.
One hour before the sacrifice blood-pressure is determined, and a blood pressure increase is taken as an evaluation of the damage to vascular endothelium. […] The hepatic damage is determined by evaluation of the glutamic-pyruvic transaminase (GPT increase) after sacrifice.
Test 3—experimental in vivo model with N^w-nitro-L-arginine-methyl ester (L-NAME): gastric tolerability (gastrointestinal damage incidence), hepatic (GPT dosage, glutamic-pyruvic transaminase) and cardiovascular (blood pressure) of some drugs screened as precursors of the compounds of the invention.
The endothelial dysfunction is evaluated by determining the damage induced by L-NAME administration to the gastrointestinal mucosa, the hepatic damage (GPT increase), and the vascular endothelium or cardiovascular damage as blood hypertension.
The animals (rats, average weight 200 g) are divided in groups as herein below described. The group receiving L-NAME is treated for 4 weeks with said compound dissolved at the concentration of 400 mg/liter in drinking water. The following groups (No. 10 animals for group) are constituted:
as §1, with “group: treatment:” for “group:”, “by parenteral route),” for “administered parenterally),”, “Treated” for “Administered”
Each drug is administered once a day for 4 weeks.
The maximum tolerated dose of the drug being administered to the animals is determined by evaluating, in a separate dose scaling up experiment on untreated animals, the appearance in the animals of symptoms such as enteropathy, diarrhoea, depression, tremor, sedation.
At the end of the four weeks access to water is prevented and after 24 hours the animals are sacrificed.
One hour before the sacrifice blood pressure is determined and a blood pressure increase is taken as an indication of a damage being occurred to vascular endothelium.
The hepatic damage is determined by evaluation after the sacrifice of the glutamic-pyruvic transaminase (GPT increase).
The % gastric lesions have been determined as in Test 1.

[3] = system: human endothelial cells of the umbilical vein; experiment: Test 2 (CIP): apoptosis (DNA fragmentation) induced by cumene hydroperoxide in endothelial cells; assay type: cell-based; conditions: drug 10^-4 M, CIP 5 mM; for Apoptosis % with respect to the controls treated only with CIP / activity at 100 µM: one hour; for activity at 100 µM: Homo sapiens, Endothelial cell, 1 h, read-out: Apoptosis % with respect to the controls treated only with CIP
Experimental: Test 2 (CIP): Protection parameter of endothelial cell against the oxidative stress induced by cumene hydroperoxide (CIP).
Human endothelial cells of the umbilical vein are prepared according to an usual standard procedure. Fresh umbilical veins are filled with a 0.1% by weight collagenase solution and incubated at 37° C. for 5 minutes.
The cells are collected from the perfusate by centrifugation and harvested in culture flasks T-75, pretreated with human fibronectin. The cells are then harvested in the same medium, further added with 10 ng/ml of bovine hypothalamic growth factor. When the cells of the primary cell culture (i.e. that directly obtained from ex-vivo) form a single layer of confluent cells (about 8,000,000 cells/flask), the culture is stopped and the layers washed and trypsinized. The cellular suspensions are transferred into the wells of a cell culture plate having 24 wells, half of which is then additioned with the same culture medium containing the drug at a 10^−4M concentration, and harvested in a thermostat at 37° C. at a constant moisture. Only the cells coming from said first sub-cultures are used for the experiments with cumene hydroperoxide (CIP).
Before starting the test, the cellular culture medium is removed and the cellular layers are carefully washed with a physiologic solution at a temperature of 37° C. The wells of the culture plate are then incubated for one hour with CIP at a 5 mM concentration in the culture medium. […] 5 replicates for each sample are carried out.
Human endothelial cells of the umbilical vein are prepared according to a standard method. Fresh umbilical veins are filled with a collagenase solution 0.1% by weight and incubated at 37° C. for 5 minutes.
The cells are collected from the perfusate by centrifugation at 800 rpm and harvested in culture flasks T-75, pretreated with human fibronectin. Cells are then harvested in the same medium, added with bovine hypothalamic growth factor (100 ng/ml). When the cells of the primary cell culture (the cells directly removed from ex-vivo umbilical vein) form a single layer of confluent cells (about 8,000,000 cells/flask), harvesting is stopped and the layers are washed and trypsinized. The cellular suspensions are transferred into wells of a culture plate having 24 wells, half of said wells being added with the same culture medium containing the drug at a 10^−4M concentration, and harvested in a thermostat at 37° C. at a constant moisture (90%), CO2=5%. When the drug is not soluble in the culture medium, it is formerly dissolved in a small amount of dimethylsulphoxide. The maximum amount of dimethylsulphoxide which can be added to the culture medium is 0.5%. Only the cells coming from these first subcultures are used for the tests with cumene hydroperoxide (CIP).
Before starting the test, the cellular culture medium is removed and the cellular layers are carefully washed with a standard physiologic solution buffered with phosphate 0.1 M pH 7.0, at the temperature of 37° C. The content of each well is then incubated for one hour with a CIP suspension in the culture medium at a 5 mM concentration. Evaluation of the cellular damage (apoptosis) is carried out by determining the percent variation of the DNA fragmentation in the cultures containing the drug+CIP with respect to the controls treated with CIP only. […] The fluorescence of each sample was determined on 5 replicates. Statistic evaluation has been made with t Student test (p<0.01).

[4] = system: gastrointestinal mucosa; conditions: male, Wistar, rat, in vivo, 6 h
Experimental: Gastric lesions induced by administration of the compounds of the invention in the confront of the corresponding drug precursor.
The animals have been sacrificed 6 hours after the administration. The gastrointestinal mucosa has been removed and inspected. The incidence of the gastrointestinal damage has been evaluated as described in experiment F1.

[5] = system: erythrocytes; experiment: Test 4A: inhibition of erythrocyte haemolysis induced by cumene hydroperoxide; conditions: 2 mM

Molecule: CCCCC(C)(O)C/C=C/[C@H]1[C@H](O)CC(=O)[C@@H]1CCCCCCC(=O)OC (mixture of isomers) [Misoprostol]
- Gastro-enteropathy (% incidence) without NEM ([1]; 24 hours): 0%
- Blood pressure % without L-NAME [2]: 100%
- GPT % without L-NAME [2]: 100%
- Gastroenteropathy % without L-NAME [2]: 0%

Molecule: Nc1nc2c(ncn2COCCO)c(=O)[nH]1 [Acyclovir, aciclovir]
- inhibition of apoptosis induced by CIP (in words, p<0.01) [3]: do not significantly inhibit apoptosis
- Apoptosis % with respect to the controls treated only with CIP [3]: 95%

Molecule: Nc1c(Br)cc(Br)cc1CN[C@H]1CC[C@H](O)CC1 [Ambroxol, ambroxol]
- Gastropathy % incidence [4]: 60%
- inhibition of apoptosis induced by CIP (in words, p<0.01) [3]: inhibit apoptosis
- Gastro-enteropathy (% incidence) with NEM ([1]; NEM 25 mg/kg s.c. one hour before drug, 24 hours): 80%
- gastrointestinal damages / gastric lesions in rats treated with NEM + drug (in words) ([1]; NEM 25 mg/kg s.c., drug at maximum tolerated dose): showed gastric lesions
- Gastro-enteropathy (% incidence) without NEM ([1]; 24 hours): 0%

Molecule: O=C(O)COCCN1CCN(C(c2ccccc2)c2ccc(Cl)cc2)CC1 (centres unmarked) [Cetirizine, cetirizine]
- inhibition of apoptosis induced by CIP (in words, p<0.01) [3]: do not significantly inhibit apoptosis

Molecule: COC(=O)[C@H](c1ccccc1Cl)N1CCc2sccc2C1 [Clopidogrel]
- inhibition of apoptosis induced by CIP (in words, p<0.01) [3]: do not significantly inhibit apoptosis
- Apoptosis % with respect to the controls treated only with CIP [3]: 110%

Molecule: O=C(O)Cc1ccccc1Nc1c(Cl)cccc1Cl [Diclofenac, diclofenac]
- Gastropathy % incidence [4]: 70%

Molecule: OCCNCCO [Diethanolamine]
- inhibition of haemolysis induced by cumene hydroperoxide (in words) [5]: does not inhibit haemolysis
- % Haemolysis inhibition ([5]; preincubated 30 minutes, cumene hydroperoxide 270 μM, at Tmax): 2.5%

Molecule: COc1cccc2c1C(=O)c1c(O)c3c(c(O)c1C2=O)C[C@@](O)(C(=O)CO)C[C@@H]3O[C@H]1C[C@H](N)[C@H](O)[C@H](C)O1 [Doxorubicin, doxorubicin]
- activity at 100 µM [3]: 94%
- Blood pressure % without L-NAME [2]: 120%
- GPT % without L-NAME [2]: 195%
- Gastroenteropathy % without L-NAME [2]: 30%

Molecule: Nc1c(Br)cc(Br)cc1CN[C@H]1CC[C@H](OC(=O)CCCO[N+](=O)[O-])CC1 [Example 3, 4-(nitroxy)butyric acid 4-[(2-amino-3,5-dibromophenyl)methylamino] trans cyclohexyl ester]
- Gastropathy % incidence [4]: 10%

Molecule: O=C(CCCO[N+](=O)[O-])NCCCC(O)(P(=O)(O)O)P(=O)(O)O [Example 4, [4-[4-(nitroxy)butyroyl]amino-1-hydroxybutylidene]biphosphonic acid]
- Gastropathy % incidence [4]: 10%

Molecule: O=C(CCCO[N+](=O)[O-])Nc1c2c(nc3ccccc13)CCCC2 [Example 11]
- Gastropathy % incidence [4]: 20%

Molecule: COc1ccc2c(c1)c(CC(=O)O)c(C)n2C(=O)c1ccc(Cl)cc1 [Indomethacin]
- inhibition of apoptosis induced by CIP (in words, p<0.01) [3]: not significantly different with respect to that of the controls
- inhibition of apoptosis induced by CIP (in words, p<0.01) ([3]; listed as indomethacin): do not significantly inhibit apoptosis
- Gastro-enteropathy (% incidence) without NEM ([1]; 24 hours): 0%

Molecule: Nc1ccc(O)c(C(=O)O)c1 [Mesalamine]
- inhibition of apoptosis induced by CIP (in words, p<0.01) [3]: inhibit apoptosis; also recorded: inhibits the apoptosis induced by CIP
- Gastro-enteropathy (% incidence) without NEM ([1]; 24 hours): 0%

Molecule: NC(=O)c1cccnc1 [Nicotinamide]
- inhibition of apoptosis induced by CIP (in words, p<0.01) [3]: do not significantly inhibit apoptosis

Molecule: COc1ccc2[nH]c([S+]([O-])Cc3ncc(C)c(OC)c3C)nc2c1 (centres unmarked) [Omeprazol]
- inhibition of apoptosis induced by CIP (in words, p<0.01) [3]: do not significantly inhibit apoptosis
- Gastro-enteropathy (% incidence) without NEM ([1]; 24 hours): 0%
- Blood pressure % without L-NAME [2]: 100%
- GPT % without L-NAME [2]: 100%
- Gastroenteropathy % without L-NAME [2]: 0%

Molecule: CCC(C)(C)C(=O)O[C@H]1C[C@@H](C)C=C2C=C[C@H](C)[C@H](CCC3CC(O)CC(=O)O3)[C@H]21 (some centres unmarked) [Simvastatin, simvastatine]
- activity at 100 µM [3]: 72%

Molecule: CC1(C)S[C@@H]2[C@H](NC(=O)[C@H](N)c3ccccc3)C(=O)N2[C@H]1C(=O)O [ampicilline]
- inhibition of apoptosis induced by CIP (in words, p<0.01) [3]: do not significantly inhibit apoptosis

Molecule: enalapril
- inhibition of apoptosis induced by CIP (in words, p<0.01) [3]: do not significantly inhibit apoptosis
- Apoptosis % with respect to the controls treated only with CIP [3]: 80%

Molecule: salbutamol
- inhibition of apoptosis induced by CIP (in words, p<0.01) [3]: do not significantly inhibit apoptosis
- Apoptosis % with respect to the controls treated only with CIP [3]: 90%
